How the values were obtained:
CTX-M-14 = CTX-M-14 (Escherichia coli, UniProt Q9L5C7); assay: Inhibition of nitrocefin cleavage by purified CTX-M-14; format: biochemical; details: nitrocefin reporter substrate; 10 min preincubation at room temperature; read-out: Ki (CTX-M-14, NCF)
Experimental: (§1) Ki values of inhibition of purified class A, C and D enzymes were determined spectrophotometrically using nitrocefin as reporter substrate. Purified enzymes were mixed with various concentrations of inhibitors in reaction buffer and incubated for 10 min at room temperature. Nitrocefin was added and substrate cleavage profiles were recorded at 490 nm every 10 sec for 10 min.

SHV-12 = SHV-12 (Klebsiella pneumoniae, UniProt P0AD64, E235K/G234S/L31Q); assay: Inhibition of nitrocefin cleavage by purified SHV-12; format: biochemical; details: nitrocefin reporter substrate; 10 min preincubation at room temperature; read-out: Ki (SHV-12, NCF)
Experimental: as §1

KPC-2 = KPC-2 (Klebsiella pneumoniae, UniProt Q9F663); assay: Inhibition of nitrocefin cleavage by purified KPC-2; format: biochemical; details: nitrocefin reporter substrate; 10 min preincubation at room temperature; read-out: Ki (KPC-2, NCF)
Experimental: as §1, with “min. These experiments confirmed that the described compounds are inhibitors with a broad-spectrum of activity towards various β-lactamases.” for “min.”

P99 = P99 (Enterobacter cloacae, UniProt P05364); assay: biochemical; details: nitrocefin reporter substrate; 10 min preincubation at room temperature; read-out: Ki (P99, NCF)
Experimental: as §1

Pa-AmpC = Pa-AmpC (Pseudomonas aeruginosa, UniProt P24735); assay: biochemical; details: nitrocefin reporter substrate; 10 min preincubation at room temperature; read-out: Ki (Pa-AmpC, NCF)
Experimental: as §1

OXA-48 = OXA-48 (Klebsiella pneumoniae, UniProt Q6XEC0); assay: Inhibition of nitrocefin cleavage by purified OXA-48; format: biochemical; details: nitrocefin reporter substrate; 10 min preincubation at room temperature; read-out: Ki (OXA-48, NCF)
Experimental: as §1, with “min. These experiments confirmed that the described compounds are inhibitors with a broad-spectrum of activity towards various β-lactamases.” for “min.”

OXA-23 = OXA-23 (Acinetobacter baumannii, UniProt Q9L4P2); assay: Inhibition of nitrocefin cleavage by purified OXA-23; format: biochemical; details: nitrocefin reporter substrate; 10 min preincubation at room temperature; read-out: Ki (OXA-23, NCF)
Experimental: as §1, with “min. These experiments confirmed that the described compounds are inhibitors with a broad-spectrum of activity towards various β-lactamases.” for “min.”

VIM-1 = VIM-1 (Pseudomonas aeruginosa, UniProt A0A0F7KYQ8); assay: Inhibition of nitrocefin cleavage by purified VIM-1; format: biochemical; details: nitrocefin reporter substrate; 10 min preincubation at room temperature; read-out: Ki (VIM-1, NCF)
NDM-1 = NDM-1 (Klebsiella pneumoniae, UniProt C7C422); assay: Inhibition of imipenem cleavage by purified NDM-1; format: biochemical; details: imipenem reporter substrate; 37° C.; read-out: Ki (NDM-1, IMI)
Experimental: Purified enzymes were mixed with various concentrations of inhibitors in reaction buffer and incubated for 10 min at room temperature. Imipenem was added and substrate cleavage profiles were recorded at 294 nm every 30 seconds for 30 minutes at 37° C.

IMP-1 = IMP-1 (Serratia marcescens, UniProt P52699); assay: Inhibition of imipenem cleavage by purified IMP-1; format: biochemical; details: imipenem reporter substrate; 37° C.; read-out: Ki (IMP-1, IMI)
Experimental: Ki values of inhibition of purified class B enzymes NDM-1 and IMP-1 were determined spectrophotometrically using imipenem as reporter substrate. Purified enzymes were mixed with various concentrations of inhibitors in reaction buffer and incubated for 10 min at room temperature. Imipenem was added and substrate cleavage profiles were recorded at 294 nm every 30 seconds for 30 minutes at 37° C. These experiments further confirmed that the described compounds have the ability to inhibit carbapenemase activity of metallo-beta-lactamases.

[1] = Stability of compound 13 prodrugs in human serum; format: in vitro ADME; details: 37° C., prodrug 50.0 μg/mL
Experimental: The rate of hydrolysis for several prodrugs of 13 was evaluated in vitro by measuring their stability in human serum and human liver microsomes. All serum stability experiments were conducted by aliquoting 10 μL of test compound at 500 μg/mL (10× final concentration) in 95:5 water:acetonitrile v/v into 1.5 mL Eppendorf tubes. […] The tubes were then warmed to 37° C. in a water bath along with human serum (Bioreclamations) in a separate tube. Serum esterase activity for each lot of serum used was established by assaying an unrelated ester prodrug as a control. To initiate the reaction, 90 μL of serum was added to tubes for all timepoints using a repeating-tip pipette, thereby bringing the final concentration of test compound to 50 μg/mL and the final concentration of acetonitrile to 0.5% v/v. At each timepoint, the reaction was halted and serum proteins precipitated through the addition of an equal volume of cold acetonitrile containing 25 μg/mL diclofenac as an internal standard. […] Sample analysis for serum stability experiments was conducted using an Agilent 1100 binary pump HPLC equipped with a diode array detector set to monitor absorbance at 286 nm (8 nm bandwidth). […] The samples were analyzed together with appropriate blanks in order to ensure specificity. […] The rate of activation was determined by monitoring the concentration of test compound as follows. The peak area for the analyte was divided by the peak area for the internal standard to give an area ratio. The area ratio for each timepoint was divided by the area ratio for timepoint 0 to give the percent remaining at each timepoint. The natural logarithm of the percent remaining versus time was plotted using Microsoft Excel and fitted to a linear trendline.

[2] = Stability of compound 13 prodrugs in human liver microsomes (HLM); format: in vitro ADME; details: 0.500 mg/mL human liver microsomes, no cofactors, prodrug 1.00 μM; for half-life at 1 μM: pH 7.4, read-out: Estimated half-life (minutes) (rounded to nearest integer value)
Experimental: In the meantime, a 20.0 mg/mL solution of human liver microsomes (XenoTech, LLC) was diluted to 1.00 mg/mL (2× final concentration). Esterase activity for each lot of microsomes used was established by assaying an unrelated ester prodrug as a control. Both the Eppendorfs for each timepoint and the diluted liver microsomes were then warmed to 37° C. in a water bath. No cofactors (e.g. NADPH) were added to ensure that only hydrolytic reactions as opposed to reactions mediated by other cofactor-dependent enzymes (e.g. CYP450 enzymes) would take place. To initiate the reaction, 50 μL of diluted human liver microsomes was added to tubes for all timepoints using a repeating-tip pipette, thereby bringing the final concentration of test compound to 1.00 μM and the final concentration of human liver microsomes to 0.500 mg/mL. At each timepoint, the reaction was halted and proteins precipitated through the addition of 200 μL of 10:45:45 water:methanol:acetonitrile v/v/v containing an unrelated ester prodrug at 250 ng/mL as an internal standard. […] Sample analysis for microsome stability experiments was conducted using a 20.0 μL injection on a LEAP PAL autosampler with Agilent 1100 binary pump HPLC coupled to an AB Sciex 3200 QTrap mass spectrometer. […] Detection was in positive mode; source parameters and parent-daughter ion selection criteria were chosen as needed for each compound to achieve an appropriate limit of detection and signal-to-noise ratio. The samples were analyzed together with appropriate blanks in order to ensure specificity. The rate of hydrolysis for each prodrug was determined by monitoring the concentration of test compound as follows. The peak area for the analyte was divided by the peak area for the internal standard to give an area ratio. The area ratio for each of the two replicates at each timepoint was divided by the area ratio for timepoint 0 to give the percent remaining at each timepoint. The natural logarithm of the percent remaining versus time for all replicates was plotted using Microsoft Excel and fitted to a linear trendline.

Chain of OXA-23 (Q9L4P2 18-273): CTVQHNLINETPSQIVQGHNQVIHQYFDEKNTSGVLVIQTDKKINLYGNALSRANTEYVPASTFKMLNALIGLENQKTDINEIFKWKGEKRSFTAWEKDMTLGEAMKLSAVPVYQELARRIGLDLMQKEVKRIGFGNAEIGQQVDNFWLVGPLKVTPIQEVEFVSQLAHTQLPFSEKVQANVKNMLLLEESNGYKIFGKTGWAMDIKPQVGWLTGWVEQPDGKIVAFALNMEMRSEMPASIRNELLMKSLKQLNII
Chain of CTX-M-14 (Q9L5C7 29-291, species assumed): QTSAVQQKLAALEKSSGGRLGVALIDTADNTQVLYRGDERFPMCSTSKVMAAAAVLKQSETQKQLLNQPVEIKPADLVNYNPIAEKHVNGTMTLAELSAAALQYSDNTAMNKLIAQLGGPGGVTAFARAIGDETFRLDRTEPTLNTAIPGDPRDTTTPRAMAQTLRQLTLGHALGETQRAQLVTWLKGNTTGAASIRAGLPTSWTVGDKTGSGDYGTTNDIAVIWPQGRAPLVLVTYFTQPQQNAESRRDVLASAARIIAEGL
Chain of P99 (P05364 21-381): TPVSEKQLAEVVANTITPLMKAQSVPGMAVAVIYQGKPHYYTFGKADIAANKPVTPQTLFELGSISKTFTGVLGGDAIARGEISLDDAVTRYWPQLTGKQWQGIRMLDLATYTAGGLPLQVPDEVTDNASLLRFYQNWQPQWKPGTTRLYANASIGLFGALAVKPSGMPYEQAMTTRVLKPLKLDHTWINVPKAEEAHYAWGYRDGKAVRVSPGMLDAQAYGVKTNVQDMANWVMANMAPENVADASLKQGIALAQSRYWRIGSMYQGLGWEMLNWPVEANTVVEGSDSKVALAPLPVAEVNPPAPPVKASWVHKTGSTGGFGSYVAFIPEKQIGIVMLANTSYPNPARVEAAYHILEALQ
Chain of IMP-1 (P52699 19-246, looked up, species assumed): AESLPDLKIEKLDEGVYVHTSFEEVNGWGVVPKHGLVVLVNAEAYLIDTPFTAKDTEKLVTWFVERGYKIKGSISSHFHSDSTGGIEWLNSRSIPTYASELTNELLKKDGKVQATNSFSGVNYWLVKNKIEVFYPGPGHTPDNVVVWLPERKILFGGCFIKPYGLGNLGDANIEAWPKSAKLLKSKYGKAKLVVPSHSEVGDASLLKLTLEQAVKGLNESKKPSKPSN
Chain of OXA-48 (Q6XEC0 23-265, looked up): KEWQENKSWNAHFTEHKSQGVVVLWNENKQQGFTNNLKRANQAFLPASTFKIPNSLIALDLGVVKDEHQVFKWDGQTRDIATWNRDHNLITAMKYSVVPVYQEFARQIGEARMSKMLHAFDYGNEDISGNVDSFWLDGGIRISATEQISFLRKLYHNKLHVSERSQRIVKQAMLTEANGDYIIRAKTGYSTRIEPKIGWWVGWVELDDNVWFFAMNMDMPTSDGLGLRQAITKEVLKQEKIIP
Chain of NDM-1 (C7C422 29-270, looked up, species assumed): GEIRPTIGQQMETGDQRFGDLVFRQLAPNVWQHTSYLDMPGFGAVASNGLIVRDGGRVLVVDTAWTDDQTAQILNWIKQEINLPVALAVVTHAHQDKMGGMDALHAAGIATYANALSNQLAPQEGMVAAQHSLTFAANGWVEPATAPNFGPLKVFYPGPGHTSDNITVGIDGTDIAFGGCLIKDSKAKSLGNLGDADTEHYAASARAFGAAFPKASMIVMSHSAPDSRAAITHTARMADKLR
Chain of SHV-12 (P0AD64 22-286 L31Q/G234S/E235K): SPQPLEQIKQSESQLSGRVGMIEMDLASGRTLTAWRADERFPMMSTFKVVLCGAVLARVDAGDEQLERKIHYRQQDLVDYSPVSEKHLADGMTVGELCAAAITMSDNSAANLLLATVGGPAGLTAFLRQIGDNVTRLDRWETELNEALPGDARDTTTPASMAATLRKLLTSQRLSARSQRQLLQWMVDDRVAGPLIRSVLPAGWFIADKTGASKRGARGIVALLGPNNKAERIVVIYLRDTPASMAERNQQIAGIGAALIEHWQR
Chain of KPC-2 (Q9F663 25-293 limits assumed): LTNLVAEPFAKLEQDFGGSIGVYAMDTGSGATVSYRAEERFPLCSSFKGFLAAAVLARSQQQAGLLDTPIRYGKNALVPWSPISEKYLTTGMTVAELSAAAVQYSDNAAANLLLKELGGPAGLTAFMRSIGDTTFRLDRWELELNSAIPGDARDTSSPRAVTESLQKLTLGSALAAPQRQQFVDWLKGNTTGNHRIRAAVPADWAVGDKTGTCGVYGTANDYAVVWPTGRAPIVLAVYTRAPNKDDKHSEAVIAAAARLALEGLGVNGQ
Chain of Pa-AmpC (P24735 27-397): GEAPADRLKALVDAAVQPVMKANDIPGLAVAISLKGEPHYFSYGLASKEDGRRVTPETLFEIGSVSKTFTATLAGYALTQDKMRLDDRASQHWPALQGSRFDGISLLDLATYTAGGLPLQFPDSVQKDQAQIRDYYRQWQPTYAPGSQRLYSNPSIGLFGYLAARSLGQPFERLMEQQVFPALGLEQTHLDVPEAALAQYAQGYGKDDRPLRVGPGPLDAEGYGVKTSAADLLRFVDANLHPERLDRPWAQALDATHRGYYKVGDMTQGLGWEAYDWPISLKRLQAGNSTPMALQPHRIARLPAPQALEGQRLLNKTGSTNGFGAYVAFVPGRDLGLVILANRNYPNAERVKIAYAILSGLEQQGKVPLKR

For `COc1ccc2c(c1C(=O)O)OB(O)C1C2[C@H]2CC[C@@H]1C2` (stereo partly drawn) [Compound 7, (7R,10S)-6-hydroxy-3-methoxy-6a,7,8,9,10,10a-hexahydro-6H-7,10-methanodibenzo[c,e][1,2]oxaborinine-4-carboxylic acid], the Ki (CTX-M-14) was < 100 nM, the Ki (SHV-12) was 100 to 1000 nM and the Ki (KPC-2) was < 100 nM. For the same compound, the Ki (P99) was < 100 nM, the Ki (Pa-AmpC) was < 100 nM and the Ki (OXA-48) was < 100 nM. The Ki (OXA-23) was < 100 nM, the Ki (VIM-1) was < 100 nM and the Ki (NDM-1) was < 100 nM. The Ki (IMP-1) was < 100 nM.
With `O=C(OCOC(=O)C1CCOCC1)c1c(F)ccc2c1OB(O)[C@@H]1C[C@H]21` [Compound 39, Tetrahydropyran-4-carbonyloxymethyl (1aR,7bS)-5-fluoro-2-hydroxy-1a,7b-dihydro-1H-cyclopropa[c][1,2]benzoxaborinine-4-carboxylate] the “% of initial area ratio at t = 0 min” value [1] was 100%, the “% of initial area ratio at t = 5 min” value [1] was 69.3% and the “% of initial area ratio at t = 10 min” value [1] was 59.4%. For the same compound, the “% of initial area ratio at t = 30 min” value [1] was 41.1%.
With `COCC(=O)OCOC(=O)c1c(F)ccc2c1OB(O)[C@@H]1C[C@H]21` [Compound 43, (2-Methoxyacetyl)oxymethyl (1aR,7bS)-5-fluoro-2-hydroxy-1a,7b-dihydro-1H-cyclopropa[c][1,2]benzoxaborinine-4-carboxylate] the “% of initial area ratio at t = 0 min” value [1] was 100%, the “% of initial area ratio at t = 5 min” value [1] was 58.6% and the “% of initial area ratio at t = 10 min” value [1] was 34.5%. For the same compound, the “% of initial area ratio at t = 30 min” value [1] was 2.9%, the “Average % of initial area ratio at t = 0 min” value [2] was 100% and the “Average % of initial area ratio at t = 5 min” value [2] was 64.4%. For the same compound, the “Average % of initial area ratio at t = 10 min” value [2] was 44.6%, the “Average % of initial area ratio at t = 30 min” value [2] was 0.6% and the half-life at 1 μM [2] was 4 min.
For `O=C(OCOC(=O)c1c(F)ccc2c1OB(O)[C@@H]1C[C@H]21)OC1COC1` [Compound 32, Oxetan-3-yloxycarbonyloxymethyl (1aR,7bS)-5-fluoro-2-hydroxy-1a,7b-dihydro-1H-cyclopropa[c][1,2]benzoxaborinine-4-carboxylate], the “% of initial area ratio at t = 0 min” value [1] was 100%, the “% of initial area ratio at t = 5 min” value [1] was 86.8% and the “% of initial area ratio at t = 10 min” value [1] was 77.2%. For the same compound, the “% of initial area ratio at t = 30 min” value [1] was 38.7%.
For `CC(=O)OCC(=O)OCOC(=O)c1c(F)ccc2c1OB(O)[C@@H]1C[C@H]21` [Compound 42, (2-Acetoxyacetyl)oxymethyl (1aR,7bS)-5-fluoro-2-hydroxy-1a,7b-dihydro-1H-cyclopropa[c][1,2]benzoxaborinine-4-carboxylate], the “% of initial area ratio at t = 0 min” value [1] was 100%, the “% of initial area ratio at t = 5 min” value [1] was 29.1% and the “% of initial area ratio at t = 10 min” value [1] was 8.1%. For the same compound, the “% of initial area ratio at t = 30 min” value [1] was 0%, the “Average % of initial area ratio at t = 0 min” value [2] was 100% and the “Average % of initial area ratio at t = 5 min” value [2] was 27.1%. The “Average % of initial area ratio at t = 10 min” value [2] was 10.3%, the “Average % of initial area ratio at t = 30 min” value [2] was 0.4% and the half-life at 1 μM [2] was 4 min.
In the case of `COc1ccc2c(c1C(=O)O)OB(O)C1C2[C@H]2C=C[C@@H]1C2` (stereo partly drawn) [Compound 6, (7R,10R)-6-hydroxy-3-methoxy-6a,7,10,10a-tetrahydro-6H-7,10-methanodibenzo[c,e][1,2]oxaborinine-4-carboxylic acid], the Ki (CTX-M-14) is reported as > 1000 nM, the Ki (SHV-12) is reported as 100 to 1000 nM and the Ki (KPC-2) is reported as < 100 nM. For the same compound, the Ki (P99) was < 100 nM, the Ki (Pa-AmpC) was < 100 nM and the Ki (OXA-48) was < 100 nM. For the same compound, the Ki (OXA-23) was 100 to 1000 nM, the Ki (VIM-1) was 100 to 1000 nM and the Ki (NDM-1) was > 1000 nM. For the same compound, the Ki (IMP-1) was > 1000 nM.
In the case of `COc1ccc2c(c1C(=O)O)OB(O)CC21CC1` [Compound 11, 2-hydroxy-7-methoxy-spiro[3H-1,2-benzoxaborinine-4,1′-cyclopropane]-8-carboxylic acid], the Ki (CTX-M-14) is reported as < 100 nM, the Ki (SHV-12) is reported as < 100 nM and the Ki (KPC-2) is reported as < 100 nM. For the same compound, the Ki (P99) was < 100 nM, the Ki (Pa-AmpC) was < 100 nM and the Ki (OXA-48) was < 100 nM. For the same compound, the Ki (OXA-23) was < 100 nM, the Ki (VIM-1) was 100 to 1000 nM and the Ki (NDM-1) was < 100 nM. It also gave a Ki (IMP-1) of 100 to 1000 nM.
In the case of `O=C(O)c1cccc2c1OB(O)C1CC21` (stereo not shown) [Compound 10, 2-Hydroxy-1a,7b-dihydro-1H-cyclopropa[c][1,2]benzoxaborinine-4-carboxylic acid], the Ki (CTX-M-14) is reported as < 100 nM, the Ki (SHV-12) is reported as < 100 nM and the Ki (KPC-2) is reported as < 100 nM. The Ki (P99) was < 100 nM, the Ki (Pa-AmpC) was < 100 nM and the Ki (OXA-48) was < 100 nM. For the same compound, the Ki (OXA-23) was < 100 nM, the Ki (VIM-1) was < 100 nM and the Ki (NDM-1) was < 100 nM. The Ki (IMP-1) was 100 to 1000 nM.
With `Cc1oc(=O)oc1COC(=O)c1c(F)ccc2c1OB(O)[C@@H]1C[C@H]21` [Compound 33, (5-Methyl-2-oxo-1,3-dioxol-4-yl)methyl (1aR,7bS)-5-fluoro-2-hydroxy-1a,7b-dihydro-1H-cyclopropa[c][1,2]benzoxaborinine-4-carboxylate] the “% of initial area ratio at t = 0 min” value [1] was 100%, the “% of initial area ratio at t = 5 min” value [1] was 48.4% and the “% of initial area ratio at t = 10 min” value [1] was 15.4%. The “% of initial area ratio at t = 30 min” value [1] was 0%.

— US11999759B2, “Boronic acid derivatives and therapeutic uses thereof” (Qpex Biopharma, Inc., priority 2016, dated 2024)
